According to PMC11783601, “Analogue-Sensitive Inhibition of Histone Demethylases Uncovers Member-Specific Function in Ribosomal Protein Synthesis” (Journal of the American Chemical Society, 2025):
Values joined by “and” are separate entries in the source; they are usually repeats but may differ in a detail not shown here. Equal entries are not always repeated.

Molecular target: T1, KDM4A F185A (asKDM4A) in HEK293T cells (Homo sapiens, UniProt O75164, F185A)
T1 construct: we generated the F185A mutation in full-length KDM4A carrying all of the functional domains; host or cells: HEK293T
T1 sequence (O75164 1-1064 F185A): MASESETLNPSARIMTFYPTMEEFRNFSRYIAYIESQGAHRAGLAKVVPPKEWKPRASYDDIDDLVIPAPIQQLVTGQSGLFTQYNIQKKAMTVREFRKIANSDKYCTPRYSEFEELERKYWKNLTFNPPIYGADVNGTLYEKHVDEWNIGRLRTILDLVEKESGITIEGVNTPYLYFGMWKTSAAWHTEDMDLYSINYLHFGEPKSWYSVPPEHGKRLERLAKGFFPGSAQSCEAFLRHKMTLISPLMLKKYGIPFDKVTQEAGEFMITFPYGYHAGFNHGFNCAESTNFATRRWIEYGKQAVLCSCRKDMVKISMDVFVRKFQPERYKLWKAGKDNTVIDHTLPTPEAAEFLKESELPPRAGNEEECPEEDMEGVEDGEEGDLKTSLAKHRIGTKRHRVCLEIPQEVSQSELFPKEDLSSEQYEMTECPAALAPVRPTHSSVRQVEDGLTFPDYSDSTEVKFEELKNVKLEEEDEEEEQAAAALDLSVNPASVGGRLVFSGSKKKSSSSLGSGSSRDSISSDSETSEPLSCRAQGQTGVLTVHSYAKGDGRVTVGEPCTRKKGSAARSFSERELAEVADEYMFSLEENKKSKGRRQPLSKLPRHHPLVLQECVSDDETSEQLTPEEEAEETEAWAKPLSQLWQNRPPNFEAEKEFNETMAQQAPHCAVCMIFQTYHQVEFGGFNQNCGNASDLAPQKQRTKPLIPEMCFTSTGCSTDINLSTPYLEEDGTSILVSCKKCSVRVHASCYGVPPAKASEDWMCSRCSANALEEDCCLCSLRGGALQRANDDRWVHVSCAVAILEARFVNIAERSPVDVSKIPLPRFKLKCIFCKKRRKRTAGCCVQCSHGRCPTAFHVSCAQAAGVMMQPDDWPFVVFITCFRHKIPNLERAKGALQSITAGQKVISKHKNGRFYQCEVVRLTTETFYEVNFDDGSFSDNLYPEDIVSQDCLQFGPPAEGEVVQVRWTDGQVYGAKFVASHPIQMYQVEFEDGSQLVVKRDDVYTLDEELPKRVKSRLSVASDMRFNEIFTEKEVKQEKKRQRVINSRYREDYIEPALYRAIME
Assay: Histone extraction, digestion and tandem mass spectrometry (relative abundance of histone modifications)
Assay type: cell-based
Conditions: peptide form; samples 6A_1, 6A_2
Experimental: HEK293T cells were transiently transfected with asKDM4A and treated with varying concentrations of 6A or 6B. […] To further confirm the activity of the enzyme–inhibitor pair, we performed tandem mass spectrometry of tryptic histones isolated from HEK293T cells expressing asKDM4A in the presence or absence of 100 μM 6A. […]
22. Histone extraction, digestion and tandem mass spectrometry
HEK 293-T cells (ATCC CRL-1573) were plated into 6-well plates (Corning) in DMEM (Corning) supplemented with 10% FBS (Corning) and 1X Antibiotic/Antimycin
(Penicillin/Streptomycin/Fungiozone) (Cytiva HyClone) in an incubator held at 37 °C with 5%
CO2. At 75% confluency, cells were transfected with 2.5 µg KDM4A F185A or Empty Vector with 5µg Thermo Turbofect (FERR0531). After 4 hours, the media was washed and 200 µM of 6A or equivalent volume of DMSO was added and left to incubate at 37 °C for 24 hours. Cells were then washed with 1X PBS (Corning) followed by trypsinization (Gibco TrypLE™ Express Enzyme). Collected cells were centrifuged at 3000xg for 3 minutes, followed by washing with 1X PBS and centrifuged for an additional 3000xg for 3 minutes. Histone proteins were extracted from the pellet as described by25 to ensure good-quality identification and quantification of single histone marks. Briefly, cell pellets were dissolved in 100 µL of cold 0.2 M H2SO4 and incubated for 2 hours rotating in a cold room (4 °C). Aliquots were then centrifuged at 3400xg for 5 minutes […]
at 4 °C and the supernatant was added to a fresh tube. 100% cold TCA was then added to a final volume of 33% volume/volume TCA/supernatant and left to incubate for 1 hour in a cold room (4 °C). Samples were then centrifuged at 3400xg for 5 min at 4 °C and the supernatant was discarded. The precipitate was then washed with cold acetone/0.1% HCl and centrifuged at 3400xg for 5 minutes at 4 °C. The supernatant was discarded, and the precipitate was washed with cold acetone and centrifuged at 3400xg for 5 minutes at 4 °C. The supernatant was discarded, and the pellet was dried using a vacuum centrifuge.
The pellet was dissolved in 50 mM ammonium bicarbonate, pH 8.0, and histones were subjected to derivatization using 5 µL of propionic anhydride and 14 µL of ammonium hydroxide (all Sigma Aldrich) to balance the pH at 8.0. The mixture was incubated for 15 min and the procedure was repeated. Histones were then digested with 1 µg of sequencing grade trypsin (Promega) diluted in 50mM ammonium bicarbonate (1:20, enzyme:sample) overnight at room temperature.
Derivatization reaction was repeated to derivatize peptide N-termini. The samples were dried in a […]
Sample desalting: Prior to mass spectrometry analysis, samples were desalted using a 96-well plate filter (Orochem) packed with 1 mg of Oasis HLB C-18 resin (Waters). Briefly, the samples were resuspended in 100 µl of 0.1% TFA and loaded onto the HLB resin, which was previously equilibrated using 100 µl of the same buffer. After washing with 100 µl of 0.1% TFA, the samples were eluted with a buffer containing 70 µl of 60% acetonitrile and 0.1% TFA and then dried in a […]
LC-MS/MS Acquisition and Analysis: Samples were resuspended in 10 µl of 0.1% TFA and loaded onto a Dionex RSLC […] (Thermo Scientific), coupled online with an Orbitrap Fusion Lumos (Thermo Scientific). Chromatographic separation was performed with a two-column system, consisting of a C-18 trap cartridge (300 µm ID, 5 mm length) and a picofrit analytical column (75 µm ID, 25 cm length) packed in-house with reversed-phase Repro-Sil Pur C18-AQ 3 µm resin. Peptides were separated using a 30 min gradient from 1-30% buffer B (buffer A: 0.1% formic acid, buffer B: 80% acetonitrile + 0.1% formic acid) at a flow rate of 300 nl/min.
The mass spectrometer was set to acquire spectra in a data-independent acquisition (DIA) mode.

`CCCCCCCCOC(=O)C(=O)NC(CC(C)C)C(=O)O` [6A, L-Leu octyl-ester NOG] was tested, and the “Relative abundance, H3_9_17 K9me1S10ph” value was 7.8% and 0.0004%, the “Relative abundance, H3_9_17 K9me1S10phK14ac” value was 0.0342% and 0.0031% and the “Relative abundance, H3_9_17 K9me2” value was 22.1% and 17.2%. The “Relative abundance, H3_9_17 K9me2K14ac” value was 19.6% and 31.3%, the “Relative abundance, H3_9_17 K9me2S10ph” value was 0.317% and 0.0091% and the “Relative abundance, H3_9_17 K9me2S10phK14ac” value was 0.125% and 0.1%. For the same compound, the “Relative abundance, H3_9_17 K9me3” value was 10.5% and 10.1%, the “Relative abundance, H3_9_17 K9me3K14ac” value was 4.9% and 8.1% and the “Relative abundance, H3_9_17 K9me3S10ph” value was 0.178% and 0.2%. The “Relative abundance, H3_9_17 K9me3S10phK14ac” value was 0.0363% and 0.177%, the “Relative abundance, H3_9_17 K14ac” value was 8.4% and 11.5% and the “Relative abundance, H3_9_17 S10ph” value was 0.0768% and 0.0083%. The “Relative abundance, H3_9_17 S10phK14ac” value was 0.0443% and 0.0008%, the “Relative abundance, H3_9_17 unmod” value was 9.8% and 11.8% and the “Relative abundance, H3_18_26 K18ac” value was 0.249% and 0.34%. For the same compound, the “Relative abundance, H3_18_26 K18acK23ac” value was 0.647% and 0.316%, the “Relative abundance, H3_18_26 K18me1” value was 0.0% and 0.0012% and the “Relative abundance, H3_18_26 K18me1K23me1” value was 0.0%. The “Relative abundance, H3_18_26 K23ac” value was 50.6% and 44.0%, the “Relative abundance, H3_18_26 K23me1” value was 0.0% and 0.0005% and the “Relative abundance, H3_18_26 unmod” value was 48.5% and 55.3%. The “Relative abundance, H3_27_40 K27ac” value was 0.0296% and 0.0%, the “Relative abundance, H3_27_40 K27me1” value was 3.2% and 3.4% and the “Relative abundance, H3_27_40 K27me1K36me1” value was 5.3% and 3.7%. For the same compound, the “Relative abundance, H3_27_40 K27me1K36me2” value was 8.3% and 9.8%, the “Relative abundance, H3_27_40 K27me1K36me3” value was 1.2% and 1.9% and the “Relative abundance, H3_27_40 K27me1S28ph” value was 0.0041% and 0.002%. The “Relative abundance, H3_27_40 K27me2” value was 15.4% and 12.9%, the “Relative abundance, H3_27_40 K27me2K36me1” value was 9.5% and 8.5% and the “Relative abundance, H3_27_40 K27me2K36me2” value was 22.1% and 30.2%. For the same compound, the “Relative abundance, H3_27_40 K27me2S28ph” value was 0.0281% and 0.0017%, the “Relative abundance, H3_27_40 K27me3” value was 11.7% and 6.9% and the “Relative abundance, H3_27_40 K27me3K36me1” value was 3.6% and 2.6%. For the same compound, the “Relative abundance, H3_27_40 K27me3K36me2” value was 3.5% and 4.6%, the “Relative abundance, H3_27_40 K27me3S28ph” value was 0.0216% and 0.0012% and the “Relative abundance, H3_27_40 K36me1” value was 1.9% and 1.7%. For the same compound, the “Relative abundance, H3_27_40 K36me2” value was 3.2% and 4.8%, the “Relative abundance, H3_27_40 K36me3” value was 5.9% and 4.4% and the “Relative abundance, H3_27_40 S28ph” value was 0.0007% and 0.1%. For the same compound, the “Relative abundance, H3_27_40 unmod” value was 5.0% and 4.6%, the “Relative abundance, H3_41_49 Y41ph” value was 0.001% and 0.173% and the “Relative abundance, H3_41_49 unmod” value was 100.0% and 99.8%. For the same compound, the “Relative abundance, H3_54_63 K56ac” value was 0.0%, the “Relative abundance, H3_54_63 K56me2” value was 0.0% and the “Relative abundance, H3_54_63 K56me3” value was 0.0%. For the same compound, the “Relative abundance, H3_73_83 K79ac” value was 0.0%, the “Relative abundance, H3_73_83 K79me3” value was 4.6% and 0.0% and the “Relative abundance, H4_4_17 K5ac” value was 1.3% and 2.1%. The “Relative abundance, H4_4_17 K5acK8ac” value was 0.3% and 1.0%, the “Relative abundance, H4_4_17 K5acK8acK12ac” value was 0.261% and 1.3% and the “Relative abundance, H4_4_17 K5acK8acK12acK16ac” value was 0.0284% and 2.6%. For the same compound, the “Relative abundance, H4_4_17 K5acK8acK16ac” value was 0.279% and 0.9%, the “Relative abundance, H4_4_17 K5acK12ac” value was 0.8% and 3.1% and the “Relative abundance, H4_4_17 K5acK12acK16ac” value was 0.471% and 3.1%. For the same compound, the “Relative abundance, H4_4_17 K5acK16ac” value was 0.7% and 2.5%, the “Relative abundance, H4_4_17 K8ac” value was 1.3% and 1.4% and the “Relative abundance, H4_4_17 K8acK12ac” value was 0.211% and 0.6%. The “Relative abundance, H4_4_17 K8acK12acK16ac” value was 1.2% and 4.4%, the “Relative abundance, H4_4_17 K8acK16ac” value was 1.5% and 3.9% and the “Relative abundance, H4_4_17 K12ac” value was 2.8% and 4.2%. The “Relative abundance, H4_4_17 K12acK16ac” value was 3.3% and 7.5%, the “Relative abundance, H4_4_17 K16ac” value was 24.2% and 24.4% and the “Relative abundance, H4_4_17 unmod” value was 61.3% and 37.2%. For the same compound, the “Relative abundance, H4_20_23 K20ac” value was 0.3% and 1.3%, the “Relative abundance, H4_20_23 K20me1” value was 48.4% and 36.1% and the “Relative abundance, H4_20_23 K20me3” value was 3.5% and 3.6%. For the same compound, the “Relative abundance, H4_20_23 unmod” value was 37.7% and 34.8%, the “Relative abundance, H4_24_35 unmod” value was 100.0% and the “Relative abundance, H4_40_45 K44ac” value was 0.0025% and 0.039%. The “Relative abundance, H4_40_45 unmod” value was 100.0%, the “Relative abundance, H4_79_92 unmod” value was 100.0% and the “Relative abundance, H33_27_40 K27ac” value was 0.0069% and 0.0%. The “Relative abundance, H33_27_40 K27me1” value was 3.6% and 2.5%, the “Relative abundance, H33_27_40 K27me1K36me1” value was 4.8% and 3.5% and the “Relative abundance, H33_27_40 K27me1K36me2” value was 11.0% and 11.1%. For the same compound, the “Relative abundance, H33_27_40 K27me1K36me3” value was 2.1% and 3.4% and the “Relative abundance, H33_27_40 K27me1S28ph” value was 0.0023% and 0.024%.
